This note sets out measurements from patent publication US7880010B2, “Crystalline forms of a dimethylphenyl compound” (Theravance, Inc., priority 2006, dated 2011).

Common to all, as to assay: Radioligand binding assay for human β adrenergic receptors
The target of experiment [1] is T1, human β1 adrenergic receptor (Homo sapiens, UniProt P08588).
T1 construct: expressed in transfected cells; host or cells: HEK-293
The conditions noted are these: [3H]-dihydroalprenolol 1 nM. The method, then: (§1) Human embryonic kidney (HEK-293) cell lines stably expressing cloned human β1 and β2 adrenergic receptors or Chinese hamster ovarian (CHO) cell lines stably expressing cloned human β3 adrenergic receptors were grown to near confluency in DMEM or Hams F-12 media with 10% FBS in the presence of 500 μg/mL Geneticin. The cell monolayer was lifted with 2 mM EDTA in PBS. Cells were pelleted by centrifugation at 1,000 rpm, and cell pellets were either stored frozen at −80° C. or membranes were prepared immediately for use. For preparation of β1 and β2 receptor expressing membranes, cell pellets were re-suspended in lysis buffer (10 mM HEPES/HCl, 10 mM EDTA, pH 7.4 at 4° C.) and homogenized using a tight-fitting Dounce glass homogenizer (30 strokes) on ice. […] The protein concentration of the membrane suspension was determined by the methods described in Lowry et al., 1951, Journal of Biological Chemistry, 193, 265; and Bradford, Analytical Biochemistry, 1976, 72, 248-54. […]
(§2) Binding assays were performed in 96-well microtiter plates in a total assay volume of 100 μL with 10-15 μg of membrane protein containing the human β1, β2 or β3 adrenergic receptors in assay buffer (75 mM Tris/HCl pH 7.4 at 25° C., 12.5 mM MgCl2, 1 mM EDTA, 0.2% BSA). […] Non-specific binding was determined in the presence of 10 μM propranolol. […] Filter plates were washed three times with filtration buffer (75 mM Tris/HCl pH 7.4 at 4° C., 12.5 mM MgCl2, 1 mM EDTA) to remove unbound radioactivity. The plates were then dried and 50 μL of Microscint-20 liquid scintillation fluid (Packard BioScience Co., Meriden, Conn.) was added and plates were counted in a Packard Topcount liquid scintillation counter (Packard BioScience Co., Meriden, Conn.). Binding data were analyzed by nonlinear regression analysis with the GraphPad Prism Software package (GraphPad Software, Inc., San Diego, Calif.) using the 3-parameter model for one-site competition. The curve minimum was fixed to the value for nonspecific binding, as determined in the presence of 10 μM propranolol. […]

In experiment [2] the target is T2, human β2 adrenergic receptor (Homo sapiens, UniProt P07550).
T2 construct: expressed in transfected cells; host or cells: HEK-293
Conditions: [3H]-dihydroalprenolol 1 nM. Here is the method: as §1, §2

The target in experiment [3] is T3, human β3 adrenergic receptor (Homo sapiens, UniProt P13945).
T3 construct: expressed in transfected cells; host or cells: CHO / CHO-K1
The conditions noted are these: [125I]-(−)-iodocyanopindolol 0.5 nM. The method, then: as §1, §2

A value given as a limit tells only on which side of the number the result lay.

T2 sequence (P07550 whole entry): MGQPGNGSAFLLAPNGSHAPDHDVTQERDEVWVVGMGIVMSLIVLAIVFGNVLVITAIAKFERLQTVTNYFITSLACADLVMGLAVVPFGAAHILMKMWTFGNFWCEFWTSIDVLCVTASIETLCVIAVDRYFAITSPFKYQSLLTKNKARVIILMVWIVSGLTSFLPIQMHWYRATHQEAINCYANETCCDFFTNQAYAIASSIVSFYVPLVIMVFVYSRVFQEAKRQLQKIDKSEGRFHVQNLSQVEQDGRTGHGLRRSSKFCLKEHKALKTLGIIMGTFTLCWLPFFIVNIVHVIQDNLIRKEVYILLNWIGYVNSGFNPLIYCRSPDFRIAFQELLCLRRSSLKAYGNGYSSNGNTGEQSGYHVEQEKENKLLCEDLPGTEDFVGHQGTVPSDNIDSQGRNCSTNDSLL
T1 sequence (P08588 whole entry): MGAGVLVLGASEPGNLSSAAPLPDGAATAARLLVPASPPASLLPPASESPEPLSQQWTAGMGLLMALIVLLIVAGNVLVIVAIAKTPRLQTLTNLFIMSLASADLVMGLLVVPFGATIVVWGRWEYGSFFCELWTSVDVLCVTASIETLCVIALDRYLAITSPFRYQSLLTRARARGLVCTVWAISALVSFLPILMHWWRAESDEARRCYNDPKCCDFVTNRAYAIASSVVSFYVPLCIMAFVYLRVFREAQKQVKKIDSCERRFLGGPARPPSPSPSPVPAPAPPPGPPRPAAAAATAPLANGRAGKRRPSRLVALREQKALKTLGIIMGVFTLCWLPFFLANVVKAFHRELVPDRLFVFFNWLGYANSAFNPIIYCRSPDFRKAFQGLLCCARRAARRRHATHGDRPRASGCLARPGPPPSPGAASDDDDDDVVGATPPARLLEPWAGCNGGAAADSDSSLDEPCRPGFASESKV
T3 sequence (P13945 whole entry): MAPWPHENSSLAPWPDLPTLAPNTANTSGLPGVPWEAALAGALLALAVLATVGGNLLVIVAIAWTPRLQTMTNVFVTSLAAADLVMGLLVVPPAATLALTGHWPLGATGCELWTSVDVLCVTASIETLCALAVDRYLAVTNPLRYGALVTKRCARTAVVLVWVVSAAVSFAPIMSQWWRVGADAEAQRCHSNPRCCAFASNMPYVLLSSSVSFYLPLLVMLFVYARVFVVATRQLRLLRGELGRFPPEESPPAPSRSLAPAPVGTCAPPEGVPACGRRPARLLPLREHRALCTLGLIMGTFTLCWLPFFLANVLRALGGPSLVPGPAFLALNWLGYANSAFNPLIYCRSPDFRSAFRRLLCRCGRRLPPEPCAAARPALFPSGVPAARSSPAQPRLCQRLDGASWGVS

Regarding `Cc1cc(NC(=O)CCN2CCC(OC(=O)Nc3ccccc3-c3ccccc3)CC2)c(C)cc1CNC[C@H](O)c1ccc(O)c(NC=O)c1` [compound of formula I, biphenyl-2-ylcarbamic acid 1-[2-(4-{[(R)-2-(3-formylamino-4-hydroxyphenyl)-2-hydroxyethylamino]methyl}-2,5-dimethylphenylcarbamoyl)ethyl]-piperidin-4-yl ester], the Ki was over 1 µM in experiment [1], under 0.01 µM in experiment [2] and over 1 µM in experiment [3].
